Data taken from US7125877B2, “Benzimidazole derivatives” (Banyu Pharmaceutical Co., Ltd., priority 2002, dated 2006).
Structures can show the parent of a compound that is named as a salt.

Experiments:
nociceptin receptor ORL1 [1] = biological target: T1, nociceptin receptor ORL1 (Homo sapiens, UniProt P41146); assay: Nociceptin receptor binding inhibition assay ([125I]Tyr14-Nociceptin, SPA, CHO/ORL1 membranes); conditions: 50 pM [125I]Tyr14-Nociceptin, CHO/ORL1 membrane, 37° C. for 60 minutes; read-out: IC50 value, nociceptin receptor binding inhibition action
T1 construct: expressed in transfected cells
T1 sequence (P41146 whole entry): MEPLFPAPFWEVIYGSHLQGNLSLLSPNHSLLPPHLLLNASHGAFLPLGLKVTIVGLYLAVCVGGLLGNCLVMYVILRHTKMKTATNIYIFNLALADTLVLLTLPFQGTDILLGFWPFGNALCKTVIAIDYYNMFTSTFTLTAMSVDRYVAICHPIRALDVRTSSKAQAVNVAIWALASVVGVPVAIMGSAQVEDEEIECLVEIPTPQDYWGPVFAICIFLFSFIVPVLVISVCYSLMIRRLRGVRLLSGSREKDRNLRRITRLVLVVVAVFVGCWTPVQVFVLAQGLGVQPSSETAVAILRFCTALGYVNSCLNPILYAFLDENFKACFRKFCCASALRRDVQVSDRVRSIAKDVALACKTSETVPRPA
Description: Pharmacological Test Example 1 (Nociceptin Receptor Binding Inhibition Assay)
cDNA which codes a human nociceptin receptor gene was cloned into an expression vector pCR3 (Invitrogen) to prepare pCR3/ORL1. Next, pCR3/ORL1 was transfected in CHO cells using a transfectam (Nippongene) to obtain a stable expression strain (CHO/ORL1 cells) having resistance against 1 mg/ml G418. Membrane fractions were prepared from this stable expression strain to carry out a receptor binding assay.
The membrane of 11 μg, 50 pM [^125I] Tyr^14-Nociceptin (Amersham Pharmacia), 1 mg Wheatgerm agglutinin SPA beads (PVT based; Amersham Pharmacia) and each test compound were suspended in an NC buffer (50 mM Hepes, 10 mM sodium chloride, 1 mM magnesium chloride, 2.5 mM calcium chloride, 0.1% BSA, 0.025% bacitracin, pH 7.4) and incubated at 37° C. for 60 minutes, and then the radioactivity was determined. The binding activity to the nociceptin receptor was indicated by the 50% inhibition concentration (IC50 value) of [^125I]Tyr^14-Nociceptin binding by each compound of the present invention.

nociceptin receptor ORL1 [2] = biological target: T1, nociceptin receptor ORL1; assay: Antagonism against nociceptin-elicited G protein activation (GTPγ[35S] binding, CHO/ORL1 membranes); format: biochemical; conditions: 50 nM nociceptin, 200 pM GTPγ[35S], CHO/ORL1 membrane, 25° C. for 150 minutes
Description: Pharmacological Test Example 2 (Antagonism Against Nociceptin-elicited G Protein Activation)
CHO cells which stably represented a nociceptin receptor ORL1 were used to investigate the action of each tested compound against nociceptin-elicited G protein activation. A membrane prepared from the CHO/ORL1 cells, 50 nM nociceptin, 200 pM GTPγ[^35S] (NEN), 1.5 mg Wheatgerm agglutinin SPA beads (Amersham Pharmacia) and each of the tested compounds were mixed in a GDP buffer (20 mM Hepes, 100 mM sodium chloride, 10 mM magnesium chloride, 1 mM EDTA, 5 μM GDP, pH 7.4) and incubated at 25° C. for 150 minutes, and then the radioactivity was determined. The antagonism against nociceptin-elicited G protein activation was shown by the 50% inhibition concentration (IC50 value) of each tested compound against GTPγ[^35S] binding.

| IC50 (nociceptin receptor ORL1 [1]) [nM] | IC50 (nociceptin receptor ORL1 [2]) [nM] | SMILES |
| --- | --- | --- |
| 1.4 | 0.65 | CCN1CCN(c2cc3[nH]c(C(=O)[C@]4(C)CC[C@@](C)(O)CC4)nc3cc2Cl)CC1 [Example 51, 5-chloro-2-[(1,4-trans)-1,4-dimethyl-4-hydroxycyclohexylcarbonyl]-6-(4-ethylpiperazin-1-yl) benzimidazole] |
| 29 |  | CCN1CCN(c2cc3[nH]c(C(=O)N(C)C4CCCCC4)nc3cc2Cl)C(C)C1 (stereo not drawn) [Example 39(2S*)] |
| 0.41 | 0.92 | COC(=O)N[C@H]1CC[C@](C)(C(=O)c2nc3cc(Cl)c(N4CCN(CCO)CC4C)cc3[nH]2)CC1 (single isomer, unassigned) [Example 6(2S*), 5-chloro-6-[4-(2-hydroxyethyl)-(2S*)-2-methylpiperazin-1-yl]-2-[(1,4-trans)-4-methoxycarbonylamino-1-methylcyclohexylcarbonyl]benzimidazole-fumaric acid salt] |
| 0.19 | 0.42 | CCN1CCN(c2cc3[nH]c(C(=O)[C@]4(CC)CC[C@@H](NC(=O)OC)CC4)nc3cc2Cl)C(C)C1 (single isomer, unassigned) [Example 15(2S*), 5-chloro-2-[(1,4-trans)-1-ethyl-4-(methoxycarbonylamino)-cyclohexylcarbonyl]-6-[4-ethyl-(2S*)-2-methylpiperazin-1-yl]benzimidazole-fumaric acid salt] |
| 1.9 | 1.5 | CCN1CCN(c2cc3[nH]c(C(=O)C4(C)CCN(C(C)=O)CC4)nc3cc2C)C(C)C1 (single isomer, unassigned) [Example 27(2S*), 2-(1-acetyl-4-methylpiperidinyl-4-carbonyl)-6-[4-ethyl-(2S*)-2-methylpiperazin-1-yl]-5-methylbenzimidazole] |
| 0.22 | 0.36 | CCN1CCN(c2cc3[nH]c(C(=O)[C@]4(CC)CC[C@@H](NC(=O)OC)CC4)nc3cc2C)C(C)C1 (single isomer, unassigned) [Example 47(2S*), 2-[(1,4-trans)-1-ethyl-4-(methoxycarbonylamino)-cyclohexylcarbonyl]-6-[4-ethyl-(2S*)-2-methylpiperazin-1-yl]-5-methylbenzimidazole-fumaric acid salt] |
| 0.51 | 0.82 | CCN1CCN(c2cc3[nH]c(C(=O)[C@]4(C)CC[C@@H](NC(=O)OC)CC4)nc3cc2Cl)C(C)C1 (single isomer, unassigned) [Example 1(2S*), 5-chloro-6-[4-ethyl-(2S*)-2-methylpiperazin-1-yl]-2-[(1,4-trans)-4-methoxycarbonylamino-1-methylcyclohexylcarbonyl]benzimidazole] |
| 2.1 | 2.8 | CCN1CCN(c2cc3[nH]c(C(=O)[C@]4(C)CC[C@@H](O)CC4)nc3cc2Cl)C(C)C1 (single isomer, unassigned) [Example 24(2S*), 5-chloro-6-[4-ethyl-(2S*)-2-methylpiperazin-yl]-2-[(1,4-trans)-4-hydroxy-1-methylcyclohexylcarbonyl]benzimidazole] |
| 0.55 | 1 | COC[C@]1(C(=O)c2nc3cc(C)c(N4CCN5CCC[C@H]5C4)cc3[nH]2)CC[C@](C)(O)CC1 [Example 53, 6-[(S)-1,4-ziazabicyclo[4.3.0]nonan-4-yl]-2-[(1,4-trans)-4-hydroxy-1-methoxymethyl-4-methylcyclohexylcarbonyl]-5-methylbenzimidazole] |
| 0.99 | 0.63 | COC(=O)N[C@H]1CC[C@](C)(C(=O)c2nc3cc(C)c(N4CCN(CCO)CC4C)cc3[nH]2)CC1 (single isomer, unassigned) [Example 11(2S*), 6-[4-(2-hydroxyethyl)-(2S*)-2-methylpiperazin-1-yl]-2-[(1,4-trans)-4-methoxycarbonylamino-1-methylcyclohexylcarbonyl]-5-methylbenzimidazole-fumaric acid salt] |
| 0.2 | 0.63 | CCN1CCN(c2cc3[nH]c(C(=O)[C@]4(C)CC[C@@H](NC(=O)OC)CC4)nc3cc2C)C(C)C1 (single isomer, unassigned) [Example 2(2S*), 6-[4-ethyl-(2S*)-2-methylpiperazin-1-yl]-2-[(1,4-trans)-4-methoxycarbonylamino-1-methylcyclohexylcarbonyl]-5-methylbenzimidazole] |
